Measured values published in patent US11655216B2 (priority 2016, dated 2023).
Like-named read-outs stand apart in the source and are kept apart here.

Legend:
[1] = target: T1, glutathione-S-transferase (GST) tagged LXRbeta LBD (ligand binding domain) (Homo sapiens, UniProt P55055); assay: LanthaScreen TR-FRET Liver X Receptor Coactivator Assay, LXR beta; format: biochemical; conditions: for EC50: LXR beta IP, potency (Inflection Point), compound-induced co-activator recruitment, TR-FRET; for Emax: read-out: LXR beta actiivty at max dose, efficacy (% Emax) in relation to reference dual agonist T0901317; for LXR beta actiivty at max dose: efficacy (% Emax) in relation to reference dual agonist T0901317
T1 construct: purchased Invitrogen pv4658
T1 sequence (P55055 222-460 limits assumed): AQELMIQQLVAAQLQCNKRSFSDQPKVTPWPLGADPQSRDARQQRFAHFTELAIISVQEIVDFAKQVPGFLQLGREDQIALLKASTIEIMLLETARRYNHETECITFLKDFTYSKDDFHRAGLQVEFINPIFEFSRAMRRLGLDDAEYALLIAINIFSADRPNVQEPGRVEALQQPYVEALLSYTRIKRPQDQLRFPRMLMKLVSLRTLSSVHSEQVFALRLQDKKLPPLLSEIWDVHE
Summary of the method: (§1)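 Test ligands were combined with the receptor LBD, after which terbium-labelled anti-GST antibody and a fluorescein-tagged coactivator peptide were introduced together. Plates sat at room temperature, then time-resolved FRET was measured.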

[2] = target: T2, glutathione-S-transferase (GST) tagged LXRalpha LBD (ligand binding domain) (Homo sapiens, UniProt Q13133); assay: biochemical; conditions: for EC50: LXR alpha IP
T2 construct: purchased Invitrogen pv4655
T2 sequence (Q13133 209-447 limits assumed): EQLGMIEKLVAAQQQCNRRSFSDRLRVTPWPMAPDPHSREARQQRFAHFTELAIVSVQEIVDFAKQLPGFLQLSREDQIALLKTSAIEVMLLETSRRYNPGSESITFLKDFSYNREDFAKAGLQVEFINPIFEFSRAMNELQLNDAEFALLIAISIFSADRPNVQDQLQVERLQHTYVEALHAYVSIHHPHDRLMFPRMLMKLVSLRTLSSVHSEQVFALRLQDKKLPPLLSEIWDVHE
Summary of the method: as §1

[3] = potency (Inflection Point), compound-induced co-activator recruitment, TR-FRET
[4] = read-out: LXR alpha actiivty at max dose, efficacy (% Emax) in relation to reference dual agonist T0901317
[5] = read-out: LXR alpha actiivty at max dose

EC50 [1] | Emax [1] | EC50 [2, 3] | LXR alpha IP [2] | Emax [2, 5] | EC50 [2] | LXR beta actiivty at max dose [1] | LXR alpha actiivty at max dose ([2]; efficacy (% Emax) in relation to reference dual agonist T0901317) | Emax ([2]; efficacy (% Emax) in relation to reference dual agonist T0901317, read-out: LXR alpha actiivty at max dose) | SMILES | Emax [2, 4] | LXR alpha IP [2, 3]
5 nM | 102% | 202 nM | – | – | – | – | – | – | CN(C)C(=O)c1ccc(OCCC2CC23CCN(C(=O)C(C)(C)c2ccccc2)CC3)nc1Cl (stereo not drawn) [Example 15-3, 2-chloro-N,N-dimethyl-6-(2-(6-(2-methyl-2-phenylpropanoyl)-6-azaspiro[2.5]octan-1-yl)ethoxy)nicotinamide] | 67% | –
153 nM | 28% | – | – | – | – | – | – | – | CN(C)C(=O)c1ccc(OCCC2CC23CCN(C(=O)Cc2cccc(Br)c2)CC3)cc1Cl (single isomer, unassigned) [Example 12-3, (R or S)-4-(2-(6-(2-(3-bromophenyl)acetyl)-6-azaspiro[2.5]octan-1-yl)ethoxy)-2-chloro-N,N-dimethylbenzamide] | 1% | No IP
99 nM | 84% | – | No IP | 8% | – | – | – | – | COc1cccc(C(O)(C(=O)N2CCC(CC(C)CC(C)Oc3ccc(C(=O)N(C)C)c(Cl)c3)CC2)C(F)(F)F)c1 (single isomer, unassigned) [Example 30-1, 2-chloro-N,N-dimethyl-4-(4-methyl-5-(1-((R or S)-3,3,3-trifluoro-2-hydroxy-2-(3-methoxyphenyl)propanoyl)piperidin-4-yl)pentan-2-yloxy)benzamide] | – | –
5 nM | 66% | – | – | 14% | 117 nM | – | – | – | COc1cccc([C@@](O)(C(=O)N2CCC([C@H]3C[C@H]3CCOc3ccc(C(=O)N(C)C)c(Cl)c3)CC2)C(F)(F)F)c1 (single isomer, unassigned) [Example 10-1, 2-chloro-N,N-dimethyl-4-(2-((1S,2R or 1R, 2S)-2-(1-((R or S)-3,3,3-trifluoro-2-hydroxy-2-(3-methoxyphenyl)propanoyl)piperidin-4-yl)cyclopropyl)ethoxy)benzamide] | – | –
3 nM | 89% | 49 nM | – | – | – | – | – | – | COc1cccc([C@@](O)(C(=O)N2CCC([C@H]3CC[C@@H](Oc4ccc(C(=O)N(C)C)c(Cl)c4)CC3)CC2)C(F)(F)F)c1 (single isomer, unassigned) [Example 38-1, 2-chloro-N,N-dimethyl-4-((1S,4s)-4-(1-((R or S)-3,3,3-trifluoro-2-hydroxy-2-(3-methoxyphenyl)propanoyl)piperidin-4-yl)cyclohexyloxy)benzamid] | 44% | –
661 nM | 57% | 10500 nM | – | – | – | – | – | – | Cc1nnc(C(C)(C)C(=O)N2CCC3(CC2)CC3CCOc2ccc(C(=O)N(C)C)c(Cl)c2)s1 (single isomer, unassigned) [Example 12-2, (R or S)-2-chloro-N,N-dimethyl-4-(2-(6-(2-methyl-2-(5-methyl-1,3,4-thiadiazol-2-yl)propanoyl)-6-azaspiro[2.5]octan-1-yl)ethoxy)benzamide] | 52% | –
163 nM | 60% | – | – | – | – | – | – | – | CN(C)C(=O)c1ccc(OC[C@@H]2C[C@H]2C2CCN(C(=O)C(C)(C)c3ccccc3)CC2)cc1Cl (single isomer, unassigned) [Example 32-4, 2-chloro-N,N-dimethyl-4-(((1R,2S or 1S,2R)-2-(1-(2-methyl-2-phenylpropanoyl)piperidin-4-yl)cyclopropyl)methoxy) benzamide] | 0% | No IP
206 nM | – | – | – | – | – | 73% | 8% | – | CC(C)C(O)(C(=O)N1CCC(C2CC2COc2ccc(C(=O)N(C)C)c(Cl)c2)CC1)C(F)(F)F (single isomer, unassigned) [Example 32-2, 2-chloro-4-(((1R,2S or 1S,2R)-2-(1-((R or S)-2-hydroxy-3-methyl-2-(trifluoromethyl)butanoyl)piperidin-4-yl)cyclopropyl)methoxy)-N,N-dimethylbenzamide] | – | No IP
24 nM | 58% | – | – | – | – | – | – | 1% | CN(C)C(=O)c1ccc(OCCC2CC23CCN(C(=O)C2(c4ccccc4)CCCC2)CC3)cc1Cl (single isomer, unassigned) [Example 12-1, (R or S)-2-chloro-N,N-dimethyl-4-(2-(6-(1-phenylcyclopentanecarbonyl)-6-azaspiro[2.5]octan-1-yl)ethoxy)benzamide] | – | No IP
92 nM | – | 1880 nM | – | – | – | 120% | – | – | COc1cccc(C(O)(C(=O)N2CCC3(CCC(Oc4ccc(C(=O)N(C)C)c(Cl)n4)CC3)CC2)C(F)(F)F)c1 (single isomer, unassigned) [Example 1-2, 2-chloro-N,N-dimethyl-6-(3-((S or R)-3,3,3-trifluoro-2-hydroxy-2-(3-methoxyphenyl)propanoyl)-3-azaspiro[5.5]undecan-9-yloxy)nicotinamide] | 35% | –
80 nM | 26% | 1180 nM | – | – | – | – | – | – | CN(C)C(=O)c1ccc(OCCC2CC23CCN(S(=O)(=O)C(C)(C)c2ccccc2)CC3)cc1Cl (single isomer, unassigned) [Example 12-18, (S or R)-2-chloro-N,N-dimethyl-4-(2-(6-(2-phenylpropan-2-ylsulfonyl)-6-azaspiro[2.5]octan-1-yl)ethoxy)benzamide] | 27% | –

SMILES | EC50 [1] | Emax [1] | EC50 [2, 3] | LXR alpha IP [2] | Emax [2, 5] | EC50 [2] | LXR beta actiivty at max dose [1] | LXR alpha actiivty at max dose ([2]; efficacy (% Emax) in relation to reference dual agonist T0901317) | Emax ([2]; efficacy (% Emax) in relation to reference dual agonist T0901317, read-out: LXR alpha actiivty at max dose) | Emax [2, 4] | LXR alpha IP [2, 3]
CN(C)C(=O)c1ccc(OCCCCC2CCN(S(=O)(=O)c3ccccc3C(F)(F)F)CC2)nc1Cl [Example 7-1, 2-chloro-N,N-dimethyl-6-(4-(1-(2-(trifluoromethyl)phenylsulfonyl)piperidin-4-yl)butoxy)nicotinamide] | 36 nM | 138% | 776 nM | – | – | – | – | – | – | 82% | –
O=C(N[C@H]1CCOC1)c1ccc(OCCCCC2CCN(C(=O)[C@](O)(c3ccccc3)C(F)(F)F)CC2)cc1Cl (single isomer, unassigned) [Example 8-6, 2-chloro-N-((S or R)-tetrahydrofuran-3-yl)-4-(4-(1-((R or S)-3,3,3-trifluoro-2-hydroxy-2-phenylpropanoyl)piperidin-4-yl)butoxy) benzamide] | 86 nM | 75% | 1050 nM | – | – | – | – | – | – | 35% | –
COc1cccc([C@@](O)(C(=O)N2CCC(CC(C)CC(F)(F)Oc3ccc(C(=O)N(C)C)c(Cl)c3)CC2)C(F)(F)F)c1 (single isomer, unassigned) [Example 28-1, 2-chloro-4-((R or S)-1,1-difluoro-3-methyl-4-(1-((R or S)-3,3,3-trifluoro-2-hydroxy-2-(3-methoxyphenyl)propanoyl)piperidin-4-yl)butoxy)-N,N-dimethylbenzamide] | 65 nM | 62% | – | – | – | – | – | – | – | 0% | No IP
CCc1cccc([C@@](O)(C(=O)N2CCC(C[C@H]3C[C@@H](Oc4ccc(C(=O)N(C)C)c(Cl)c4)C3)CC2)C(F)(F)F)c1 (single isomer, unassigned) [Example 37-4, 2-chloro-4-((1R,3s)-3-((1-((R or S)-2-(3-ethylphenyl)-3,3,3-trifluoro-2-hydroxypropanoyl)piperidin-4-yl)methyl)cyclobutoxy)-N,N-dimethylbenzamide] | 16 nM | 120% | – | – | – | – | – | – | – | 13% | No IP
COc1cccc(C(O)(C(=O)N2CCC(CCCCOc3ccc(C(=O)N(C)C)c(Cl)c3)CC2)C(F)(F)F)c1 (single isomer, unassigned) [Example 3-13, (S or R)-2-chloro-N,N-dimethyl-4-(4-(1-(3,3,3-trifluoro-2-hydroxy-2-(3-methoxyphenyl)propanoyl)piperidin-4-yl)butoxy)benzamide] | 394 nM | 61% | – | – | – | – | – | – | – | 0% | No IP
CN(C)C(=O)c1ccc(OCCCCC2CCN(C(=O)c3c(F)cccc3F)CC2)nc1Cl [Example 3-15, 2-chloro-6-(4-(1-(2,6-difluorobenzoyl)piperidin-4-yl)butoxy)-N,N-dimethylnicotinamide] | 328 nM | 80% | – | – | – | – | – | – | – | 14% | No IP
CN(C)C(=O)c1ccc(O[C@H]2C[C@@H](CC3CCN(C(=O)[C@](O)(c4cc(F)cc(Cl)c4)C(F)(F)F)CC3)C2)cc1Cl (single isomer, unassigned) [Example 37-10, 2-chloro-4-((1R,3s)-3-((1-((R or S)-2-(3-chloro-5-fluorophenyl)-3,3,3-trifluoro-2-hydroxypropanoyl)piperidin-4-yl)methyl)cyclobutoxy)-N,N-dimethylbenzamide] | 5 nM | 140% | 318 nM | – | – | – | – | – | – | 46% | –
